As usually defined, the EC50 is the concentration that produces a half-maximal response. By solubility is commonly meant how much of the substance goes into solution per volume.

4 compounds from patent US11395847B2, “Acylated GLP-1/GLP-2 dual agonists” (Zealand Pharma A/S, priority 2016, dated 2022) can be followed below.

Each structure is given as a SMILES string. Read-outs that look alike come from different tables or passages of the source. Where a SMILES comes first, the peptide text is derived from it.

For series [1], the system named is Normal chow-fed C57BL/6J male mice. Nature of the series: Effect on fasting glucose and intestinal weight in normal mice. Type of series: in vivo. The protocol: Normal chow-fed C57BL/6J male mice were used. The mice were kept in standard housing conditions, light-, temperature-, and humidity-controlled room (12:12 h light-dark cycle, with lights on at 06.00-18.00 h; 20-22° C.; 50-80% relative humidity). Each dosing group consisted of 6 animals. Mice were dosed once daily with 100 nmol/kg with the test compounds or vehicle for 4 days via subcutaneous administration.
On day 0 mice were fasted and blood glucose levels measured after a single s.c. injection with peptides. Animals were sacrificed 24 hours after final dosing on day 3, and small intestinal wet weights were measured.

For another series, the target named is T1, human GLP-1 receptor (Homo sapiens, UniProt P43220).
T1 construct: expressed in transfected cells
T1 sequence (P43220 24-463): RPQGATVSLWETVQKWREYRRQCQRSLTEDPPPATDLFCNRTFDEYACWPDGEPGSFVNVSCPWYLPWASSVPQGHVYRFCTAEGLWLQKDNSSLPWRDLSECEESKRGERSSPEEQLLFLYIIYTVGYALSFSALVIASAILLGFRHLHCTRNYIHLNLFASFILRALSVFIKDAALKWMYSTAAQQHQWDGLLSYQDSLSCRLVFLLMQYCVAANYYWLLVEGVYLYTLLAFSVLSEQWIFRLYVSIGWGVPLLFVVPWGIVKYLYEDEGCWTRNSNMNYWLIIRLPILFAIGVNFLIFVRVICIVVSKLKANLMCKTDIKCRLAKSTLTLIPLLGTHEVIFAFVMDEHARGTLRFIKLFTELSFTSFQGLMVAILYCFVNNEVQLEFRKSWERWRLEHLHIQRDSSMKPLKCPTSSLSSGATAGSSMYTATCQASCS
Nature of the series: GLP-1 receptor potency assay (cAMP ALPHASCREEN, HEK293 cells stably expressing GLP-1 R). Type of series: cell-based. Particulars: cAMP response, HEK293 cells expressing human GLP-1 R. The procedure, abridged:
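Clonal HEK293 line stably transfected with human GLP-1R (G418-selected) was treated with test compounds and the cAMP response quantified by ALPHASCREEN. Signals were normalized to positive control and vehicle, with EC50 and maximal response taken from concentration-response curves.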

The target of another series is T2, human GLP-2 receptor (Homo sapiens, UniProt O95838, D470N).
T2 construct: expressed in transfected cells
T2 sequence (O95838 1-553 D470N): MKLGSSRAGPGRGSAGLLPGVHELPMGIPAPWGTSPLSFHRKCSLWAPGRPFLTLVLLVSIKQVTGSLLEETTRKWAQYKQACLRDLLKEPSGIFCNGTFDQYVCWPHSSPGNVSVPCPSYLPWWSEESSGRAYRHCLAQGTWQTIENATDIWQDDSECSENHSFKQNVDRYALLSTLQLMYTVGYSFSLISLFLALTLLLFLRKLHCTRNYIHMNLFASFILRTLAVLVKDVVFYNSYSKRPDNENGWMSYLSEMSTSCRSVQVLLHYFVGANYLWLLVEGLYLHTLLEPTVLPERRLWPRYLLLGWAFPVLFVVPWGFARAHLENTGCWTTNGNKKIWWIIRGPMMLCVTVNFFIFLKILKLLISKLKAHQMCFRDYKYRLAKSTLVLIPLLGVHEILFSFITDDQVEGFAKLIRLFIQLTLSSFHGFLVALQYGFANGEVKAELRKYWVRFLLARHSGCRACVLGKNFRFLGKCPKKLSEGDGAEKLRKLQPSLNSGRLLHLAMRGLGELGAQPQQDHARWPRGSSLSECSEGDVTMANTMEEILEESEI
Nature of the series: GLP-2 receptor potency assay (cAMP ALPHASCREEN, HEK293 cells stably expressing GLP-2 R). Type of series: cell-based. The note with it: cAMP response, HEK293 cells expressing human GLP-2 R; read-out: EC50 GLP-2. The procedure, abridged:
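HEK293 clones stably transfected with the human GLP-2 receptor, selected with G418, were used. Intracellular cAMP was quantified by AlphaScreen. Responses were normalised to positive and vehicle controls, and EC50 and maximal response were taken from concentration-response curves.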

A short description of series [2]: Solubility assessment (turbidity absorbance at 325 nm). Type of series: physicochemical. The essentials: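 Peptide stock at 2 mg/ml in water at pH 2.5 diluted 1:1 into 100 mM acetate (pH 4.0, 5.0), histidine (pH 6.0, 7.0) or phosphate (pH 6.0, 7.0, 7.5) buffer. Absorbance at 280 and 325 nm read at ambient temperature (typically 25 °C), single samples (n=1).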
Series [3] can be described thus: Chemical stability (RP-HPLC normalized purity after incubation at 40° C.). The note with it: 14-day incubation, 0.2 mg/ml, normalized purity (area-%); for pH 6 normalized stability: pH 6, 40° C.; for pH 7 normalized stability: pH 7, 40° C. The class given is physicochemical. The procedure, abridged: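 Peptide at 0.2 mg/ml final in water adjusted to pH 6, 7, 7.5 or 9, incubated at 40° C for 14 days. Purity measured as main-peak area-% by C18 RP-HPLC (acetonitrile/TFA/water gradient, UV 220 nm) and normalized to T=0 set at 100 for each pH.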

For the compound `CC[C@H](C)[C@H](NC(=O)[C@H](Cc1ccccc1)NC(=O)[C@H](CC(=O)O)NC(=O)[C@H](CCCNC(=N)N)NC(=O)[C@H](C)NC(=O)[C@H](C)NC(=O)[C@H](CCCCNC(=O)CC[C@H](NC(=O)CCCCCCCCCCCCCCCCC(=O)O)C(=O)O)NC(=O)CNC(=O)[C@H](CC(=O)O)NC(=O)[C@H](CC(C)C)NC(=O)[C@@H](NC(=O)[C@@H](NC(=O)[C@H](C)NC(=O)[C@H](CC(C)C)NC(=O)[C@H](CCC(=O)O)NC(=O)[C@H](CO)NC(=O)[C@@H](NC(=O)[C@H](Cc1ccccc1)NC(=O)[C@H](CO)NC(=O)CNC(=O)[C@H](CCC(=O)O)NC(=O)C(C)(C)NC(=O)[C@@H](N)Cc1c[nH]cn1)[C@@H](C)O)[C@@H](C)O)[C@@H](C)CC)C(=O)N[C@@H](C)C(=O)N[C@@H](Cc1c[nH]c2ccccc12)C(=O)N[C@@H](CC(C)C)C(=O)N[C@H](C(=O)N[C@@H](CCC(=O)O)C(=O)N[C@@H](Cc1c[nH]cn1)C(=O)N[C@@H](CCCCN)C(=O)N[C@H](C(=O)N[C@H](C(=O)N[C@@H](CC(=O)O)C(=O)O)[C@@H](C)O)[C@@H](C)CC)[C@@H](C)CC` [Compound 8] (HELM PEPTIDE1{H.[Aib].E.G.S.F.T.S.E.L.A.T.I.L.D.G.K.A.A.R.D.F.I.A.W.L.I.E.H.K.I.T.D}|PEPTIDE2{[O=C(O)CCCCCCCCCCCCCCCCC(=O)[*:2]].[gGlu]}$PEPTIDE1,PEPTIDE2,17:R3-2:R2$$$V2.0), the “Small intestinal wet weight” value in series [1] (100 nmol/kg s.c. once daily for 4 days, sacrificed 24 hours after final dosing) is on record as 1.27 g. The compound further displayed a Fasting blood glucose in series [1] (100 nmol/kg s.c., day 0 after a single injection, fasted mice) of 5.28 mM.

In the case of `CC[C@H](C)[C@H](NC(=O)[C@H](CC(C)C)NC(=O)[C@H](Cc1c[nH]c2ccccc12)NC(=O)[C@H](C)NC(=O)[C@@H](NC(=O)[C@H](Cc1ccccc1)NC(=O)[C@H](CC(=O)O)NC(=O)[C@H](CCCNC(=N)N)NC(=O)[C@H](C)NC(=O)[C@H](C)NC(=O)[C@H](CCC(N)=O)NC(=O)[C@H](CCCCNC(=O)CC[C@H](NC(=O)CCCCCCCCCCCCCCCCC(=O)O)C(=O)O)NC(=O)[C@H](CC(=O)O)NC(=O)[C@H](CC(C)C)NC(=O)[C@@H](NC(=O)[C@@H](NC(=O)[C@H](C)NC(=O)[C@H](CC(C)C)NC(=O)[C@H](CCC(=O)O)NC(=O)[C@H](CO)NC(=O)[C@@H](NC(=O)[C@H](Cc1ccccc1)NC(=O)[C@@H](NC(=O)CNC(=O)[C@H](CCC(=O)O)NC(=O)C(C)(C)NC(=O)[C@@H](N)Cc1c[nH]cn1)[C@@H](C)O)[C@@H](C)O)[C@@H](C)O)[C@@H](C)CC)[C@@H](C)CC)C(=O)N[C@@H](C)C(=O)N[C@@H](Cc1c[nH]cn1)C(=O)N[C@@H](CCCCN)C(=O)N[C@H](C(=O)N[C@H](C(=O)N[C@@H](CC(=O)O)C(=O)O)[C@@H](C)O)[C@@H](C)CC` [Compound 23] (HELM PEPTIDE1{H.[Aib].E.G.T.F.T.S.E.L.A.T.I.L.D.K.Q.A.A.R.D.F.I.A.W.L.I.A.H.K.I.T.D}|PEPTIDE2{[O=C(O)CCCCCCCCCCCCCCCCC(=O)[*:2]].[gGlu]}$PEPTIDE1,PEPTIDE2,16:R3-2:R2$$$V2.0), the EC50 at human GLP-1 receptor turned out to be 0.13 nM; at human GLP-2 receptor, 0.24 nM. For the same compound, the solubility in series [2] (100 mM acetate buffer pH 4.0, ambient temperature, read-out: Solubility Acetate buffer pH 4) was less than 1000 µg/mL; in series [2] (100 mM acetate buffer pH 5.0, ambient temperature, read-out: Solubility Acetate buffer pH 5), less than 1000 µg/mL; in series [2] (100 mM histidine buffer pH 6.0, ambient temperature, read-out: Solubility Histidine buffer pH 6) it was not below 1000 µg/mL; in series [2] (100 mM histidine buffer pH 7.0, ambient temperature, read-out: Solubility Histidine buffer pH 7) it was not below 1000 µg/mL; in series [2] (100 mM phosphate buffer pH 6.0, ambient temperature, read-out: Solubility Phosphate buffer pH 6) it was not below 1000 µg/mL; in series [2] (100 mM phosphate buffer pH 7.0, ambient temperature, read-out: Solubility Phosphate buffer pH 7), not below 1000 µg/mL. Also, in series [2] (100 mM phosphate buffer pH 7.5, ambient temperature, read-out: Solubility Phosphate buffer pH 7.5), the solubility is not below 1000 µg/mL. Moreover, the “pH 6 normalized stability” value in series [3] was “A (>90% normalised stability)”. In series [3], the “pH 7 normalized stability” value is recorded as “B (>80% stability)”.

In the case of `CC[C@H](C)[C@H](NC(=O)[C@H](Cc1ccccc1)NC(=O)[C@H](CC(=O)O)NC(=O)[C@H](CCCNC(=N)N)NC(=O)[C@H](C)NC(=O)[C@H](C)NC(=O)[C@H](CCC(N)=O)NC(=O)[C@H](CCCCNC(=O)CC[C@H](NC(=O)CCCCCCCCCCCCCCCCC(=O)O)C(=O)O)NC(=O)[C@H](CC(=O)O)NC(=O)[C@H](CC(C)C)NC(=O)[C@@H](NC(=O)[C@@H](NC(=O)[C@H](C)NC(=O)[C@H](CC(C)C)NC(=O)[C@H](CCC(=O)O)NC(=O)[C@H](CO)NC(=O)[C@@H](NC(=O)[C@H](Cc1ccccc1)NC(=O)[C@H](CO)NC(=O)CNC(=O)[C@H](CCC(=O)O)NC(=O)C(C)(C)NC(=O)[C@@H](N)Cc1c[nH]cn1)[C@@H](C)O)[C@@H](C)O)[C@@H](C)CC)C(=O)N[C@@H](C)C(=O)N[C@@H](Cc1c[nH]c2ccccc12)C(=O)N[C@@H](CC(C)C)C(=O)N[C@H](C(=O)N[C@@H](CCCNC(=N)N)C(=O)N[C@@H](Cc1c[nH]cn1)C(=O)N[C@@H](CCCCN)C(=O)N[C@H](C(=O)N[C@H](C(=O)N[C@@H](CC(=O)O)C(=O)O)[C@@H](C)O)[C@@H](C)CC)[C@@H](C)CC` [Compound 30] (HELM PEPTIDE1{H.[Aib].E.G.S.F.T.S.E.L.A.T.I.L.D.K.Q.A.A.R.D.F.I.A.W.L.I.R.H.K.I.T.D}|PEPTIDE2{[O=C(O)CCCCCCCCCCCCCCCCC(=O)[*:2]].[gGlu]}$PEPTIDE1,PEPTIDE2,16:R3-2:R2$$$V2.0), the EC50 at human GLP-1 receptor worked out at 0.31 nM; at human GLP-2 receptor it was 0.38 nM. Further, the “pH 7 normalized stability” value in series [3] is on record as “A (>90% normalised stability)”.

For `CC[C@H](C)[C@H](NC(=O)[C@H](Cc1ccccc1)NC(=O)[C@H](CC(=O)O)NC(=O)[C@H](CCCNC(=N)N)NC(=O)[C@H](C)NC(=O)[C@H](C)NC(=O)[C@H](CCC(N)=O)NC(=O)[C@H](CCCCNC(=O)CC[C@H](NC(=O)CCCCCCCCCCCCCCCCC(=O)O)C(=O)O)NC(=O)[C@H](CC(=O)O)NC(=O)[C@H](CC(C)C)NC(=O)[C@@H](NC(=O)[C@@H](NC(=O)[C@H](C)NC(=O)[C@H](CC(C)C)NC(=O)[C@H](CCC(=O)O)NC(=O)[C@H](CO)NC(=O)[C@@H](NC(=O)[C@H](Cc1ccccc1)NC(=O)[C@H](CO)NC(=O)CNC(=O)[C@H](CCC(=O)O)NC(=O)C(C)(C)NC(=O)[C@@H](N)Cc1c[nH]cn1)[C@@H](C)O)[C@@H](C)O)[C@@H](C)CC)C(=O)N[C@@H](C)C(=O)N[C@@H](Cc1c[nH]c2ccccc12)C(=O)N[C@@H](CC(C)C)C(=O)N[C@H](C(=O)N[C@@H](CO)C(=O)N[C@@H](Cc1c[nH]cn1)C(=O)N[C@@H](CCCCN)C(=O)N[C@H](C(=O)N[C@H](C(=O)N[C@@H](CC(=O)O)C(=O)O)[C@@H](C)O)[C@@H](C)CC)[C@@H](C)CC` [Compound 31] (HELM PEPTIDE1{H.[Aib].E.G.S.F.T.S.E.L.A.T.I.L.D.K.Q.A.A.R.D.F.I.A.W.L.I.S.H.K.I.T.D}|PEPTIDE2{[O=C(O)CCCCCCCCCCCCCCCCC(=O)[*:2]].[gGlu]}$PEPTIDE1,PEPTIDE2,16:R3-2:R2$$$V2.0), at human GLP-1 receptor, the response was half-maximal at 0.27 nM (EC50). Also, the EC50 at human GLP-2 receptor worked out at 0.24 nM. Further, in series [3], the “pH 6 normalized stability” value is “A (>90% normalised stability)” and the “pH 7 normalized stability” value is given as “A (>90% normalised stability)”.
